This note sets out measurements from ChEMBL document CHEMBL2311287, “Selective inhibition of extracellular thioredoxin by asymmetric disulfides” (J Med Chem, 2013).

Numbering of substitutions follows the chain as printed. Active and inactive are the calls of the source. No cut-off for these calls is given here.

Test [1] deals with T1, Thioredoxin (Homo sapiens, UniProt P10599).
T1 sequence (P10599 whole entry): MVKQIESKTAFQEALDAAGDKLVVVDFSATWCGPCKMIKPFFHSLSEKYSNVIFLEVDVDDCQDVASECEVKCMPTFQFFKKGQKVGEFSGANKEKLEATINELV
Kind of test: Inhibition of human recombinant thioredoxin-mediated TG2 activation expressed in T84 cells assessed as blockade of 5-biotinamidopentylamine incorporation after 3 hrs by streptavidin-HRP/TMB absorbance assay.

Test [2] deals with Transglutaminase 2 (Homo sapiens). Briefly: Inhibition of human recombinant thioredoxin-mediated TG2 activation expressed in T84 cells assessed as blockade of 5-biotinamidopentylamine incorporation at 25 uM after 3 hrs by fluorescence microscopic analysis.
Test [3] concerns the target T2, Thioredoxin (Homo sapiens) (UniProt P10599).
T2 sequence (whole entry): T1 sequence (P10599 whole entry)
Briefly: Inhibition of wild type human thioredoxin by insulin turbidity assay. The settings on record: concentration not given here.

For test [4], the system named is T3, Thioredoxin (Homo sapiens), P10599 [W31A].
T3 sequence (whole entry): T1 sequence (P10599 whole entry) with W31A
Briefly: Inhibition of human thioredoxin W31A mutant.

What is called IC50 is the concentration at which inhibition is half-maximal. As for `CCC(C)SSc1ncc[nH]1` (centres undefined) [PX-12], the IC50 in test [1] was 2110 nM.
A word on the inhibition: it is how much of the control response was suppressed. Consider `O=C(NC[C@@H]1CC(Br)=NO1)[C@@H]1CCCN1C(=O)OCc1cnc2ccccc2c1`, for which the inhibition result in test [2] is “Active”.
In test [3], `CCC(C)SSc1nc2ccccc2[nH]1` (centres undefined) yielded an inhibition of 78%. Also, the Ratio in test [4] came out at 1.42 µM⁻¹ min⁻¹.
